What was measured:
mCAR promoter = assay: NHR-promoter luciferase screen, mCAR promoter; type: cell-based, mouse; settings: for luciferase activity normalized to lacZ activity and to a control, mCAR: mCAR promoter-luciferase, CV-1 cells, NHR +/- ligand, control = 1.00; for Luc. act., normalized to lacZ / Normalized Luc. act., normalized to control: mCAR promoter, HR/ligand component
Experimental: (§1) The use, feasibility, and reproducibility of the functional NHR-promoter screen in a 48-well format have been tested validated. Briefly, there were co-expressed 50 ng of each NHR/NHR homodimer or NHR/RXR heterodimer with 100 ng promoter/luciferase construct and 50 ng of LacZ (as a control for transfection efficiency) in CV-1 cells using Fugene HD (Roche) as a transfection reagent (alternatively or additionally, a CMV-YFP construct can be used as a transfection control). Each of the nuclear hormone receptors that were used in these experiments was cloned into a pcDNA3.1 vector and comprised a C-terminally linked V5H6 tag. Twenty-four hours after transfection, appropriate ligands were added, where applicable, (see Table 5 for various ligands and concentrations and after 48 hrs, samples were assayed for luciferase and LacZ activity. To measure for luciferase activity 15 ul of sample was added to 30 ul of luciferase buffer (20 mM tricine, 1.07 mM MgCarbonate, 2.67 mM MgSulfate, 0.1 mM Naz-EDTA, 5 mM DTT, 5 mM ATP, 0.15 mg/ml CoA, 0.5 mM Luciferin), mixed briefly, and run in a Perkin Elmer Victor 5 luminometer. Thus, the functional NHR-promoter screen was used to observe the transcriptional activity of 29 promoters from various physiological pathways including inflammation, lipid and sugar metabolism, cholesterol transport, xenobiotic metabolism, and circadian rhythm.
(§2) The promoters that facilitate transcription of the indicated gene products that were tested using the protocols described herein are listed in the first row of the table. The nuclear hormone receptors and, where applicable, ligands that were assayed for their transcriptional effects on the promoters are listed in the first column of the table. The data represent the luciferase activity of each sample normalized to both the lacZ activity of that sample and to a control, e.g., no NHR or ligand, as customary in the art. As described previously, these normalizations allow the transcriptional activity of each reporter cell to be compared to other samples.
(§3) Tables 7-40 show the transcriptional effects of the hormone receptors, and, where applicable, ligands (orphan receptors are screened without ligand), on each individual promoter. […] The control data of each table are shown in their last rows.

mUCP2 promoter = assay: NHR-promoter luciferase screen, mUCP2 promoter; type: cell-based, mouse; settings: for Luc. act., normalized to lacZ / Normalized Luc. act., normalized to control: mUCP2 promoter reporter, co-transfected HR, with or without its ligand; for Normalized Luc. act., normalized to control: relative to control; for luciferase activity normalized to lacZ activity and to a control, mUCP2: mUCP2 promoter-luciferase, CV-1 cells, NHR +/- ligand, control = 1.00
Experimental: as §1, §2, §3

mLeptin promoter = assay: NHR-promoter luciferase screen, mLeptin promoter; type: cell-based, mouse; settings: for Luc. act., normalized to lacZ / Normalized Luc. act., normalized to control: Table 7, mLeptin; for Results of assays of transcription factor (+/- ligand) with mLeptin: Table 6d, luciferase activity relative to control (control = 1.00)
Experimental: as §1, §2, §3

hCYP3A4 promoter = assay: NHR-promoter luciferase screen, hCYP3A4 promoter; type: cell-based, human; settings: for Luc. act., normalized to lacZ / Normalized Luc. act., normalized to control: CYP3A4 promoter, HR/ligand component; for hCYP3A4 promoter reporter activity: transcription factor +/- ligand, control = 1.00
Experimental: Briefly, there were co-expressed 50 ng of each NHR/NHR homodimer or NHR/RXR heterodimer with 100 ng promoter/luciferase construct and 50 ng of LacZ (as a control for transfection efficiency) in CV-1 cells using Fugene HD (Roche) as a transfection reagent (alternatively or additionally, a CMV-YFP construct can be used as a transfection control). Each of the nuclear hormone receptors that were used in these experiments was cloned into a pcDNA3.1 vector and comprised a C-terminally linked V5H6 tag.
as §2, §3

hIFNg promoter = assay: NHR-promoter luciferase screen, hIFNg promoter; type: cell-based, human; settings: for Luc. act., normalized to lacZ / Normalized Luc. act., normalized to control: IFNg promoter, HR component without or with ligand; for hIFNg promoter reporter activity: transcription factor +/- ligand, control = 1.00
Experimental: as §1, §2, §3

hPPARg1 promoter = assay: NHR-promoter luciferase screen, hPPARg1 promoter; type: cell-based, human; settings: for Luc. act., normalized to lacZ / Normalized Luc. act., normalized to control: PPARG1 promoter, hormone receptor with or without its ligand; for Normalized Luc. act., normalized to control: relative to control; for Results of assays of transcription factor (+/- ligand) with hPPARg1: Table 6d, luciferase activity relative to control (control = 1.00)
Experimental: as §1, §2, §3

LXRa: Liver X Receptor α (NR1H3), cDNA driver
luciferase activity normalized to lacZ activity and to a control, mCAR (mCAR promoter): 0.78
Luc. act., normalized to lacZ (mCAR promoter): 29.5
Normalized Luc. act., normalized to control (mCAR promoter): 0.8
Luc. act., normalized to lacZ (mUCP2 promoter): 262.7
Normalized Luc. act., normalized to control (mUCP2 promoter): 2.4
luciferase activity normalized to lacZ activity and to a control, mUCP2 (mUCP2 promoter): 2.39
Luc. act., normalized to lacZ (mLeptin promoter): 1.9
Normalized Luc. act., normalized to control (mLeptin promoter): 0.7
Results of assays of transcription factor (+/- ligand) with mLeptin (mLeptin promoter): 0.65
Luc. act., normalized to lacZ (hCYP3A4 promoter): 4.1
Normalized Luc. act., normalized to control (hCYP3A4 promoter): 0.9
hCYP3A4 promoter reporter activity (hCYP3A4 promoter): 0.93
Luc. act., normalized to lacZ (hIFNg promoter): 24.59
Normalized Luc. act., normalized to control (hIFNg promoter): 1.5
hIFNg promoter reporter activity (hIFNg promoter): 1.55
Luc. act., normalized to lacZ (hPPARg1 promoter): 80.8
Normalized Luc. act., normalized to control (hPPARg1 promoter): 1.2
Results of assays of transcription factor (+/- ligand) with hPPARg1 (hPPARg1 promoter): 1.17

RXRa: Retinoic X Receptor α (NR2B1), cDNA driver
luciferase activity normalized to lacZ activity and to a control, mCAR (mCAR promoter): 0.97
Luc. act., normalized to lacZ (mCAR promoter): 36.9
Normalized Luc. act., normalized to control (mCAR promoter): 1.0
Luc. act., normalized to lacZ (mUCP2 promoter): 137.8
Normalized Luc. act., normalized to control (mUCP2 promoter): 1.3
luciferase activity normalized to lacZ activity and to a control, mUCP2 (mUCP2 promoter): 1.25
Luc. act., normalized to lacZ (mLeptin promoter): 2.3
Normalized Luc. act., normalized to control (mLeptin promoter): 0.8
Results of assays of transcription factor (+/- ligand) with mLeptin (mLeptin promoter): 0.77
Luc. act., normalized to lacZ (hCYP3A4 promoter): 1.5
Normalized Luc. act., normalized to control (hCYP3A4 promoter): 0.3
hCYP3A4 promoter reporter activity (hCYP3A4 promoter): 0.35
Luc. act., normalized to lacZ (hIFNg promoter): 13.1
Normalized Luc. act., normalized to control (hIFNg promoter): 0.8
hIFNg promoter reporter activity (hIFNg promoter): 0.82
Luc. act., normalized to lacZ (hPPARg1 promoter): 45.6
Normalized Luc. act., normalized to control (hPPARg1 promoter): 0.7
Results of assays of transcription factor (+/- ligand) with hPPARg1 (hPPARg1 promoter): 0.66

B1: LXRb: Liver X Receptor β (NR1H2), cDNA driver (protein, UniProt P55055 1-460, looked up)
Oxysterols receptor LXR-beta: MSSPTTSSLDTPLPGNGPPQPGAPSSSPTVKEEGPEPWPGGPDPDVPGTDEASSACSTDWVIPDPEEEPERKRKKGPAPKMLGHELCRVCGDKASGFHYNVLSCEGCKGFFRRSVVRGGARRYACRGGGTCQMDAFMRRKCQQCRLRKCKEAGMREQCVLSEEQIRKKKIRKQQQESQSQSQSPVGPQGSSSSASGPGASPGGSEAGSQGSGEGEGVQLTAAQELMIQQLVAAQLQCNKRSFSDQPKVTPWPLGADPQSRDARQQRFAHFTELAIISVQEIVDFAKQVPGFLQLGREDQIALLKASTIEIMLLETARRYNHETECITFLKDFTYSKDDFHRAGLQVEFINPIFEFSRAMRRLGLDDAEYALLIAINIFSADRPNVQEPGRVEALQQPYVEALLSYTRIKRPQDQLRFPRMLMKLVSLRTLSSVHSEQVFALRLQDKKLPPLLSEIWDVHE
luciferase activity normalized to lacZ activity and to a control, mCAR (mCAR promoter): 0.92
Luc. act., normalized to lacZ (mCAR promoter): 34.9
Normalized Luc. act., normalized to control (mCAR promoter): 0.9
Luc. act., normalized to lacZ (mUCP2 promoter): 170.7
Normalized Luc. act., normalized to control (mUCP2 promoter): 1.6
luciferase activity normalized to lacZ activity and to a control, mUCP2 (mUCP2 promoter): 1.55
Luc. act., normalized to lacZ (mLeptin promoter): 2.4
Normalized Luc. act., normalized to control (mLeptin promoter): 0.8
Results of assays of transcription factor (+/- ligand) with mLeptin (mLeptin promoter): 0.81
Luc. act., normalized to lacZ (hCYP3A4 promoter): 4.8
Normalized Luc. act., normalized to control (hCYP3A4 promoter): 1.1
hCYP3A4 promoter reporter activity (hCYP3A4 promoter): 1.08
Luc. act., normalized to lacZ (hIFNg promoter): 19.35
Normalized Luc. act., normalized to control (hIFNg promoter): 1.2
hIFNg promoter reporter activity (hIFNg promoter): 1.22
Luc. act., normalized to lacZ (hPPARg1 promoter): 37.9
Normalized Luc. act., normalized to control (hPPARg1 promoter): 0.5
Results of assays of transcription factor (+/- ligand) with hPPARg1 (hPPARg1 promoter): 0.55
